{"source": "patent US20250041284A1", "about": "“TREATMENT OF NEUROLOGICAL DISORDERS” (Praxis Precision Medicines, Inc., priority 2022, published 2025)", "key": {"[1]": {"assay": "Spontaneous locomotor activity (sLMA) (Example 8)", "format": "in vivo, mouse", "conditions": "male, CD-1, mouse, in vivo, po, 30 min before test, distance travelled", "method": "(§1) Male CD-1 mice (Vital River, Beijing, China) approximately 6 weeks old were used for the study. Body weights were between 25 g and 35 g at the time of experiment.\n(§2) Treatment was conducted using Compound 1 and 35% 2-hydroxypropyl-β-cyclodextrin (35% HPBCD, used as a negative control). Compound 1 stock solution was prepared fresh each experiment day in 35% HPBCD and protected from light. The stock solution was diluted with vehicle for lower doses.\n(§3) The spontaneous locomotor activity (sLMA) test for each study was carried out over three days, with mice from each treatment group tested each day. The treatment groups included mice dosed with vehicle (35% HPBCD) and with Compound 1 at the dose of 3 mg/kg, 5.6 mg/kg, 10 mg/kg and 20 mg/kg. Mice were randomly assigned into one of the treatment groups.\n(§4) A single dose of Compound 1 (3 mg/kg, 5.6 mg/kg, 10 mg/kg and 20 mg/kg) or vehicle (35% HPBCD) was administered to mice via oral gavage 30 minutes prior to testing. Immediately prior to conducting the sLMA test, a brief neurological assessment was performed. Each animal was visually assessed for sedation and ataxia.\n(§5) Activity was recorded by overhead cameras and was analyzed offline. Video tracking analysis software was used to determine total distance travelled in millimeters. Distance travelled was also calculated in 5-minute bins.\n(§6) All statistical analyses were conducted using GraphPad Prism 9.3. Means were combined and standard error was calculated using the Satterthwaite Approximation to combined standard deviations. […] TD50 and TC50 values were calculated from these fit curves."}, "[2]": {"test_system": "locomotor activity of male CD-1 mice", "assay": "Spontaneous locomotor activity (sLMA) (Example 8)", "format": "in vivo, mouse", "method": "as §1, §2, §3, §4, §5, §6"}, "human NaV1.6 [3]": {"molecular_target": "T1, human NaV1.6 (Homo sapiens, UniProt Q9UQD0)", "T1 construct": "HEK-293 cell lines stably expressing human NaV1.6 (NP_055006) were used; expressed in transfected cells", "T1 sequence (Q9UQD0 whole entry)": "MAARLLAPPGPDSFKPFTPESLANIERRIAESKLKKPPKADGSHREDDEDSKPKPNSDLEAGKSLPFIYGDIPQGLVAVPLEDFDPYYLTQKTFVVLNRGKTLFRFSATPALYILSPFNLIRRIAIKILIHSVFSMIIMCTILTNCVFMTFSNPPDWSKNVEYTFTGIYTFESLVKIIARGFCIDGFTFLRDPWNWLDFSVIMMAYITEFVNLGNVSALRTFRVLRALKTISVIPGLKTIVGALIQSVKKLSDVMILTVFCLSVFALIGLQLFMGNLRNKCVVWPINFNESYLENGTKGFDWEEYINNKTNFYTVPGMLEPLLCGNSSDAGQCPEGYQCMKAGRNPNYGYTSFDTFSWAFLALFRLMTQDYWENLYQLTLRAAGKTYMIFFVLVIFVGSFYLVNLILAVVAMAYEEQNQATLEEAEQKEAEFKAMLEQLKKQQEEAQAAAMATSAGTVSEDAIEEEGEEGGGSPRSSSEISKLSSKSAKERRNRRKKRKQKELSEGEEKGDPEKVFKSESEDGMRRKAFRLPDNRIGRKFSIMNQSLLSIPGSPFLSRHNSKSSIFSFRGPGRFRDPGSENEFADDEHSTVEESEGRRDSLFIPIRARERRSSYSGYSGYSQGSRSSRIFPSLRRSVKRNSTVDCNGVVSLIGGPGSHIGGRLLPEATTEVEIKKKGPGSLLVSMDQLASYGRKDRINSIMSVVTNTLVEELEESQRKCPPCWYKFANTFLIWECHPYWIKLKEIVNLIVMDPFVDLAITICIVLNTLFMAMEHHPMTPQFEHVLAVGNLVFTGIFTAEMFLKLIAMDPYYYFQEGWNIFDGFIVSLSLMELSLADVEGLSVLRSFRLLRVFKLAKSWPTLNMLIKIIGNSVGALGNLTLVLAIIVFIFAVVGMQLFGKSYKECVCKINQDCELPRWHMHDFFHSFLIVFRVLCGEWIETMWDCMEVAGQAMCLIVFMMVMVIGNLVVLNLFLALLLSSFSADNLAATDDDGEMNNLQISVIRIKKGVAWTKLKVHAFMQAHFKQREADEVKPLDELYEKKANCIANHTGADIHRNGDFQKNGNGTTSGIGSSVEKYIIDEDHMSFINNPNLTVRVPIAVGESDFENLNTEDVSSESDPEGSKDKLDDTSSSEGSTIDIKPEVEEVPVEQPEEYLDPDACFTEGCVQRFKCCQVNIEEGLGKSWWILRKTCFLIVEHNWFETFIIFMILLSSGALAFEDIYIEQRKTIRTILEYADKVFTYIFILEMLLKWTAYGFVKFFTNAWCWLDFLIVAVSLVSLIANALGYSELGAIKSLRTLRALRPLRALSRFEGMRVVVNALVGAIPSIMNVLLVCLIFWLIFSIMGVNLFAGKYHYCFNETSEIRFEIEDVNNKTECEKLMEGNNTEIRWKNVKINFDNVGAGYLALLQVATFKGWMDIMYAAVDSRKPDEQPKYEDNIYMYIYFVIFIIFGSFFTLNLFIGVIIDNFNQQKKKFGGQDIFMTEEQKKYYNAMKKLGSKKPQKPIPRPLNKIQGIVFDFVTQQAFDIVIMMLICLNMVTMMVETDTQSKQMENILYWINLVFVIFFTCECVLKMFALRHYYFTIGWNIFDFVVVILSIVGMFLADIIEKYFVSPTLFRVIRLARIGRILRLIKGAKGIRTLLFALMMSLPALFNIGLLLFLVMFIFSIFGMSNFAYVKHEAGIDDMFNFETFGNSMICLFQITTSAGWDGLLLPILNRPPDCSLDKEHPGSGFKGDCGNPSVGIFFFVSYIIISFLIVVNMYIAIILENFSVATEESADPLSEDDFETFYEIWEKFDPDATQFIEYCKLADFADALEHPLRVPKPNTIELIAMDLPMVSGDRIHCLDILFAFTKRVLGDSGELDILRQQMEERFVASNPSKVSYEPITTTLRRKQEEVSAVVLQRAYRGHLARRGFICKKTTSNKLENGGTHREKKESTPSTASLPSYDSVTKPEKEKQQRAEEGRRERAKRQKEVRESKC", "assay": "Peak INa use-dependent block (UDB-10 Hz), automated patch clamp in HEK cells", "format": "cell-based"}, "human NaV1.6 [4]": {"molecular_target": "T1, human NaV1.6", "assay": "Persistent (late) INa inhibition, ATX-II activated, automated patch clamp in HEK cells", "format": "cell-based"}, "in vivo": {"assay": "in vivo", "conditions": "rat"}, "[5]": {"assay": "Phase 1 clinical trial, single ascending dose (Part A), healthy volunteers", "format": "in vivo, human", "conditions": "healthy participants, single oral doses up to 45 mg", "from_the_text": "This is a trial to assess the safety, tolerability, pharmacokinetics (PK), and pharmacodynamics (PD) of Compound 1 in healthy participants aged 18 to 55 years (inclusive). The trial is initially comprised of 2 parts, with 1 additional optional part, as follows: • Part A is randomized, double-blinded, and placebo-controlled. Part A is designed to investigate the safety, PK, and PD of single ascending doses of Compound 1. • Part B is randomized, double-blinded, and placebo-controlled. Part B is designed to investigate the safety, PK, and PD of multiple ascending doses (selected based on the results from Part A) of Compound 1. • Part C (optional) is a randomized, open-label, crossover design food effect evaluation to investigate the PK of a single dose (selected based on the results from Part A) of Compound 1 in the fasted and fed state.\nSafety and tolerability assessments for Parts A, B, and C will include vital signs, 12-lead ECGs, physical examinations, clinical laboratory tests, and the C-SSRS (for Part B).\nHealthy participants will be enrolled to receive single ascending oral doses of Compound 1 or placebo on Day 1. FIG. 14A is an illustration of the dosing scheme for Part A (single ascending dose) of the trial. Dose escalation in Part A will initially be conducted in up to a total of 4 planned cohorts (Cohorts A1 to A4). Following completion of Cohort A4, up to an additional 3 escalation cohorts may be added. […] Doses may be adjusted upward or downward based on safety, tolerability, and PK data from the preceding cohorts. Cohorts after A4 will be numbered sequentially (A5, A6, etc.). […]\nCompound 1 will be administered to Cohort A1 participants at the starting dose of 5 mg. […] The safety and tolerability of each sentinel participant will be monitored until Day 2 and will be reviewed prior to dosing the remainder of participants in the cohort. […]\nCohorts will be dosed in an escalating order. […] If the current dose level is determined to be safe and tolerated by the SRC, the next dose cohort will be randomized to receive the selected dose of active Compound 1 or placebo. […]"}}}
{"compound": "CCOC(F)(F)c1nnc2ccc(-c3cnc(OCC(F)(F)F)c(F)c3)cn12", "note": "[Compound 1]", "values": [{"measurement": "TD50", "setting": "[1]", "result": 10.4, "unit": "mg/kg"}, {"measurement": "sedation or ataxia", "setting": "[2]; 3 mg/kg and 5.6 mg/kg p.o.", "result": "No sedation or ataxia was observed"}, {"measurement": "mice with sedation and/or ataxia", "setting": "[2]; 10 mg/kg p.o.", "result": "five"}, {"measurement": "mice with sedation and/or ataxia", "setting": "[2]; 20 mg/kg p.o.", "result": "eight"}, {"measurement": "sLMA brain TC50", "setting": "[2]; brain concentration", "result": 1914, "unit": "ng/g"}, {"measurement": "sLMA plasma TC50", "setting": "[2]; plasma concentration", "result": 1.256, "unit": "µg/mL"}, {"measurement": "Emax", "setting": "human NaV1.6 [3]; HEK293, fitted maximum of Hill equation, read-out: Peak INa UDB-10 Hz Max effect", "result": 100, "unit": "%"}, {"measurement": "UDB preference to TB", "setting": "human NaV1.6 [3]; TB IC50 / UDB IC50", "result": 44, "unit": "×"}, {"measurement": "Ratio to Pers. INa (Peak INa UDB-10 Hz)", "setting": "human NaV1.6 [3]; UDB IC50 / persistent INa IC50", "result": 1.6}, {"measurement": "activity dependent block of peak INa", "setting": "human NaV1.6 [3]; in words, FIGS. 7A-7C", "result": "enhanced activity dependent inhibition of peak INa"}, {"measurement": "Peak INa UDB-10 Hz Hill slope", "setting": "human NaV1.6 [3]; use-dependent block 10 Hz", "result": "(0.7)"}, {"measurement": "IC50", "setting": "human NaV1.6 [3]; use-dependent block, Vm -120 mV, 10 Hz", "result": 200, "unit": "nM"}, {"measurement": "Persistent INa potency relative to the other tested INa blocking agents", "setting": "human NaV1.6 [4]; fold more potent", "result": "at least 550 ×"}, {"measurement": "Persistent INa Hill slope", "setting": "human NaV1.6 [4]; hNaV1.6 in HEK cells, ATX-II", "result": "(1.4)"}, {"measurement": "IC50", "setting": "human NaV1.6 [4]; hNaV1.6 in HEK cells, ATX-II, Vm -120 mV, 200 ms", "result": 128, "unit": "nM"}, {"measurement": "preference for persistent INa relative to peak INa", "setting": "human NaV1.6 [4]; in words, FIGS. 1A-1D", "result": "demonstrated preference for persistent INa relative to peak INa for all assay conditions"}, {"measurement": "AUC(0-inf)", "setting": "in vivo", "result": 7500, "unit": "ng·h/mL"}, {"measurement": "most frequently reported TEAEs", "setting": "[5]", "result": "headache and fatigue"}, {"measurement": "safety and tolerability", "setting": "[5]", "result": "safe and generally well tolerated"}, {"measurement": "severity of treatment-emergent adverse events (TEAEs)", "setting": "[5]", "result": "mild in severity"}]}
